What was measured:
Adenosine receptor A3 = target: T1, Adenosine receptor A3 (Homo sapiens, UniProt P0DMS8); type: cell membranes, CHO-K1, Membrane;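 further: radioligand binding assay with AB-MECA serving as the labeled ligand; in other assays of this panel Not Active means under 50% inhibition at 10 µM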
T1 sequence (P0DMS8 whole entry): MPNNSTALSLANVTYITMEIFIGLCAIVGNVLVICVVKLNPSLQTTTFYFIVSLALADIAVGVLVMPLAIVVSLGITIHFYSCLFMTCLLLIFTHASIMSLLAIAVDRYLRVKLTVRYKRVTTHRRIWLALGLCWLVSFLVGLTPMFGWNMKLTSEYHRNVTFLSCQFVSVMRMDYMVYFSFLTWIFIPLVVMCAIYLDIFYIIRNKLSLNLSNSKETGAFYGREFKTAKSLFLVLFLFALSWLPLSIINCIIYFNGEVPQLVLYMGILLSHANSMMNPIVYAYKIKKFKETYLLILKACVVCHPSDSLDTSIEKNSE

[1] = DRUGMATRIX: GABAA, Flunitrazepam, Central radioligand binding (ligand: [3H] Flunitrazepam); type: cell membranes, Rattus norvegicus, Wistar, Brain, Membrane; conditions: Not Active = under 50% inhibition at 10 µM
Neutrophil elastase = target: T2, Neutrophil elastase (Homo sapiens, UniProt P08246); type: tissue-based;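 further: inhibition of neutrophil elastase enzyme activity, measured with a p-nitroanilide-linked peptide substrate; in other assays of this panel Not Active means under 50% inhibition at 10 µM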
T2 sequence (P08246 whole entry): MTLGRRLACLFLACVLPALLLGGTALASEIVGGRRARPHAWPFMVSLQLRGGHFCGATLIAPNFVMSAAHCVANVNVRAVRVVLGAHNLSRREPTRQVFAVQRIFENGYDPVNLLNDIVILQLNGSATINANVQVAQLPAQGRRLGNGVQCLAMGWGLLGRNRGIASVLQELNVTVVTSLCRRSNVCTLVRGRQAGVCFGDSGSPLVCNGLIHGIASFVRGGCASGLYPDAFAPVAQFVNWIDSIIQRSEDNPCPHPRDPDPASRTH

[2] = target: Beta-2 adrenergic receptor (Homo sapiens, UniProt P07550); assay: DRUGMATRIX: Adrenergic beta2 radioligand binding (ligand: [3H] CGP-12177); type: cell membranes, CHO, Membrane; conditions: cho; Not Active = under 50% inhibition at 10 µM
Cathepsin G = target: T3, Cathepsin G (Homo sapiens, UniProt P08311); type: tissue-based; conditions: neutrophil;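 further: inhibition of Cathepsin G enzyme activity, tested on an AMC-conjugated peptide substrate; in other assays of this panel Not Active means under 50% inhibition at 10 µM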
T3 sequence (P08311 whole entry): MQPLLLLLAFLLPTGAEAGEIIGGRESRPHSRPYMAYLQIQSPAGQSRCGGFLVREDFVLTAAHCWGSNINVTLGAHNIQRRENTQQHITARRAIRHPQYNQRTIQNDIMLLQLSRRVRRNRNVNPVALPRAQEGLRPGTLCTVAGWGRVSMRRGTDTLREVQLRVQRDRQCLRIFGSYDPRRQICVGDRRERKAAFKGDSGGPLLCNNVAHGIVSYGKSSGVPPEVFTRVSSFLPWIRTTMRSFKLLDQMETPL

Beta-2 adrenergic receptor, sequence (P07550 whole entry): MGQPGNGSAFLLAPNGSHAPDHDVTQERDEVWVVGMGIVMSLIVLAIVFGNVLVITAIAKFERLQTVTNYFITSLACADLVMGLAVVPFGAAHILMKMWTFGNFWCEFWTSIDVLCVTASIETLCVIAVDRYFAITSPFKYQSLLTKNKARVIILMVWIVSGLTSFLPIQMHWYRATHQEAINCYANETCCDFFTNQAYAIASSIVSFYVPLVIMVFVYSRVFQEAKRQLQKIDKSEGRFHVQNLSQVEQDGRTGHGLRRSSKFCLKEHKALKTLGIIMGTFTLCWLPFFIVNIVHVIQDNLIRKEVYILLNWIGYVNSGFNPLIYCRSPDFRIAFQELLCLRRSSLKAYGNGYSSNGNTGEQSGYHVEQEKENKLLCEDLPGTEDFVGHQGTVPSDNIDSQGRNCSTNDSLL

Compound	IC50 (Adenosine receptor A3; cho-k1)	IC50 [1]	Ki [1]	IC50 (Neutrophil elastase)	IC50 [2]	IC50 (Cathepsin G)	IC50 ([1]; read-out: IC50)	Ki ([1]; read-out: Ki)	IC50 (Adenosine receptor A3; read-out: IC50)	Ki (Adenosine receptor A3; read-out: Ki)
CC(C)NNC(=O)c1ccncc1 [IPRONIAZID]	Not Active	Not Active	Not Active	Not Active	Not Active	Not Active				
O=c1cc(N2CCOCC2)oc2c(-c3ccccc3)cccc12 [LY-294002]	Not Active			Not Active	Not Active	Not Active	21.4 µM	17.4 µM		
NCCCC(O)(P(=O)(O)O)P(=O)(O)O [ALENDRONIC ACID]	Not Active	Not Active	Not Active	Not Active	Not Active	Not Active				
Nc1ccc2c3c(cccc13)C(=O)NC2=O	Not Active	Not Active	Not Active	Not Active	Not Active	Not Active				
CC(C)(C)NC(=O)[C@H]1CC[C@H]2[C@@H]3CC[C@H]4NC(=O)C=C[C@]4(C)[C@H]3CC[C@]12C [FINASTERIDE]	Not Active	Not Active	Not Active	Not Active	Not Active	Not Active				
CC[C@H](C)[C@H]1O[C@]2(C=C[C@@H]1C)C[C@@H]1C[C@@H](C/C=C(\C)[C@@H](O[C@H]3C[C@H](OC)[C@@H](O[C@H]4C[C@H](OC)[C@@H](O)[C@H](C)O4)[C@H](C)O3)[C@@H](C)/C=C/C=C3\CO[C@@H]4[C@H](O)C(C)=C[C@@H](C(=O)O1)[C@]34O)O2.CO[C@H]1C[C@H](O[C@H]2[C@H](C)O[C@@H](O[C@@H]3/C(C)=C/C[C@@H]4C[C@@H](C[C@]5(C=C[C@H](C)[C@@H](C(C)C)O5)O4)OC(=O)[C@@H]4C=C(C)[C@@H](O)[C@H]5OC/C(=C\C=C\[C@@H]3C)[C@]54O)C[C@@H]2OC)O[C@@H](C)[C@@H]1O [ABAMECTIN]		Not Active	Not Active	Not Active	Not Active	Not Active			0.87 µM	0.492 µM
Cn1c(=O)c2[nH]cnc2n(C)c1=O.Cn1c(=O)c2[nH]cnc2n(C)c1=O.NCCN [AMINOPHYLLINE]	Not Active	Not Active	Not Active	Not Active	Not Active	Not Active				
C#C[C@]1(OC(C)=O)CC[C@H]2[C@@H]3CCC4=C[C@@H](OC(C)=O)CC[C@@H]4[C@H]3CC[C@@]21C [ETHYNODIOL DIACETATE]	Not Active	Not Active	Not Active	Not Active	Not Active	Not Active				
CN/C(=N\CCSCc1nc[nH]c1C)NC#N [CIMETIDINE]	Not Active	Not Active	Not Active	Not Active	Not Active	Not Active				
COc1ccc2c3c1O[C@H]1C[C@@H](O)C=C[C@@]31CCN(C)C2 [GALANTAMINE]	Not Active	Not Active	Not Active	Not Active	Not Active	Not Active				
OC(CCCN1CCCCC1)(c1ccccc1)c1ccccc1 [DIPHENIDOL]	Not Active	Not Active	Not Active	Not Active	Not Active	Not Active				
CCC(=O)O[C@]1(C(=O)CCl)[C@@H](C)C[C@H]2[C@@H]3CCC4=CC(=O)C=C[C@]4(C)[C@@]3(F)[C@@H](O)C[C@@]21C [CLOBETASOL PROPIONATE]	Not Active	Not Active	Not Active	Not Active	Not Active	Not Active				
CCCN(CCC)S(=O)(=O)c1ccc(C(=O)O)cc1 [PROBENECID]	Not Active	Not Active	Not Active	Not Active	Not Active	Not Active				
O=C(O)CCNC(=O)c1ccccc1 [BETAMIPRON]	Not Active	Not Active	Not Active	Not Active	Not Active	Not Active				
